The values below come from PubChem BioAssay (NCI).

Structures are written as SMILES.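 1) Cells in 96-well plates. 2) Compound, 48 h, 5 concentrations. 3) Linear interpolation between surrounding doses. 4) Unreached endpoint = highest concentration. The concentration for 50% growth inhibition is given as GI50. TGI marks complete inhibition of growth.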 Some results are limits rather than exact numbers.

For one test, the system named is M19-MEL melanoma. Briefly: NCI anticancer screen, dose series, 48 h.
For `CC1(C)OCN(c2ccc(N3CCOCC3)cc2)Cn2c1nc1ccccc12`, the TGI is more than 100 µM.
`Cc1n(CC(C)C)c2c([n+]1C)C(=O)c1ccccc1C2=O` returned a TGI of 0.216 µM.
In the case of `N#C[S-].[La+3].c1cnc2c(c1)ccc1cccnc12.c1cnc2c(c1)ccc1cccnc12.c1cnc2c(c1)ccc1cccnc12`, the GI50 was 0.688 µM and the TGI is 3.69 µM.
Consider `O=S(Cc1ccccc1)c1nc2ccccc2nc1-c1cccs1` (configuration not stated), for which the TGI is 22.6 µM.
Same read-out and setting: under `Cc1ccc2c(ccc(/C=C/c3ccc(O)c4ncccc34)[n+]2C)c1` stands 22.6 µM; under `CCN1C[C@]2(C)CC[C@H](O)C34C1C(C[C@@H]32)[C@@]1(O)CC[C@H]2C[C@@H]4[C@@H]1[C@H]2O`, more than 100 µM; under `CCC(CC)NC1=C(NC(C)=O)C(=O)c2ccccc2C1=O`, more than 50 µM.
Take `CS(=O)(=O)C(C#N)c1nc2ccccc2nc1Cl` (configuration not stated): the TGI was more than 100 µM.
The molecule `CC1(c2cccc(C3CC4(CCC3=O)OCCCCO4)c2)OCCO1` (configuration not stated) registered a TGI of more than 100 µM.

The next test concerns LXFL 529 NSCLC. The experiment in a line: NCI anticancer screen, dose series, 48 h.
Regarding `CC1(C)OCN(c2ccc(N3CCOCC3)cc2)Cn2c1nc1ccccc12`, the TGI was more than 100 µM.
In the case of `Cc1n(CC(C)C)c2c([n+]1C)C(=O)c1ccccc1C2=O`, the TGI came to 0.508 µM.
For `CN(C)/C=C/C(=CC=[N+](C)C)/C=C/N(C)C`, the TGI was more than 100 µM.
Take `N#C[S-].[La+3].c1cnc2c(c1)ccc1cccnc12.c1cnc2c(c1)ccc1cccnc12.c1cnc2c(c1)ccc1cccnc12`: the GI50 was 1.83 µM and the TGI amounted to 15.3 µM.
For the molecule `O=S(Cc1ccccc1)c1nc2ccccc2nc1-c1cccs1` (configuration not stated), the TGI came out at 12.8 µM.
The same measure, in the same setting: under `Cc1ccc2c(ccc(/C=C/c3ccc(O)c4ncccc34)[n+]2C)c1` stands 19.7 µM; under `CCN1C[C@]2(C)CC[C@H](O)C34C1C(C[C@@H]32)[C@@]1(O)CC[C@H]2C[C@@H]4[C@@H]1[C@H]2O`, more than 100 µM; under `CCC(CC)NC1=C(NC(C)=O)C(=O)c2ccccc2C1=O`, more than 50 µM.
Consider `CS(=O)(=O)C(C#N)c1nc2ccccc2nc1Cl` (configuration not stated), for which the TGI was more than 100 µM.
With `CC1(c2cccc(C3CC4(CCC3=O)OCCCCO4)c2)OCCO1` (configuration not stated), the TGI is more than 100 µM.

A further test relates to HOP-18 NSCLC. The experiment in a line: NCI anticancer screen, dose series, 48 h.
Turning to `CC1(C)OCN(c2ccc(N3CCOCC3)cc2)Cn2c1nc1ccccc12`, the TGI is more than 100 µM.
`Cc1n(CC(C)C)c2c([n+]1C)C(=O)c1ccccc1C2=O`: the TGI was found to be 3.63 µM.
As for `N#C[S-].[La+3].c1cnc2c(c1)ccc1cccnc12.c1cnc2c(c1)ccc1cccnc12.c1cnc2c(c1)ccc1cccnc12`, the GI50 was 0.952 µM and the TGI came to 9.46 µM.
Molecule `O=S(Cc1ccccc1)c1nc2ccccc2nc1-c1cccs1` (configuration not stated) yielded a TGI of 29.5 µM.
On to `Cc1ccc2c(ccc(/C=C/c3ccc(O)c4ncccc34)[n+]2C)c1`, for which the TGI amounted to 26.4 µM.
Take `CCN1C[C@]2(C)CC[C@H](O)C34C1C(C[C@@H]32)[C@@]1(O)CC[C@H]2C[C@@H]4[C@@H]1[C@H]2O`: the TGI was more than 100 µM.
For `CC1(c2cccc(C3CC4(CCC3=O)OCCCCO4)c2)OCCO1` (configuration not stated), the TGI is more than 100 µM.

For another test, the system named is DLD-1 colon. Briefly: NCI anticancer screen, dose series, 48 h.
Molecule `CC1(C)OCN(c2ccc(N3CCOCC3)cc2)Cn2c1nc1ccccc12` came in with a TGI of more than 100 µM.
`Cc1n(CC(C)C)c2c([n+]1C)C(=O)c1ccccc1C2=O`: the TGI was determined as 0.975 µM.
`CN(C)/C=C/C(=CC=[N+](C)C)/C=C/N(C)C` registered a TGI of more than 100 µM.
Regarding `O=S(Cc1ccccc1)c1nc2ccccc2nc1-c1cccs1` (configuration not stated), the TGI was found to be 24.6 µM.
The molecule `Cc1ccc2c(ccc(/C=C/c3ccc(O)c4ncccc34)[n+]2C)c1` registered a TGI of 38.3 µM.
With `CCN1C[C@]2(C)CC[C@H](O)C34C1C(C[C@@H]32)[C@@]1(O)CC[C@H]2C[C@@H]4[C@@H]1[C@H]2O`, the TGI was more than 100 µM.
Molecule `CCC(CC)NC1=C(NC(C)=O)C(=O)c2ccccc2C1=O` displayed a TGI of more than 50 µM.
Molecule `CS(=O)(=O)C(C#N)c1nc2ccccc2nc1Cl` (configuration not stated) showed a TGI of more than 100 µM.
On the same count and under the same terms, under `CC1(c2cccc(C3CC4(CCC3=O)OCCCCO4)c2)OCCO1` (configuration not stated) stands more than 100 µM.

A further test deals with DMS 114 small cell lung. Briefly: NCI anticancer screen, dose series, 48 h.
In turn, `CC1(C)OCN(c2ccc(N3CCOCC3)cc2)Cn2c1nc1ccccc12` displayed a TGI of more than 100 µM.
As to `Cc1n(CC(C)C)c2c([n+]1C)C(=O)c1ccccc1C2=O`, the TGI is less than 0.0255 µM.
Consider `N#C[S-].[La+3].c1cnc2c(c1)ccc1cccnc12.c1cnc2c(c1)ccc1cccnc12.c1cnc2c(c1)ccc1cccnc12`, for which the GI50 is 1.58 µM and the TGI was 5.45 µM.
In turn, `O=S(Cc1ccccc1)c1nc2ccccc2nc1-c1cccs1` (configuration not stated) returned a TGI of 5.91 µM.
In turn, `Cc1ccc2c(ccc(/C=C/c3ccc(O)c4ncccc34)[n+]2C)c1` gave a TGI of 4.28 µM.
The molecule `CCN1C[C@]2(C)CC[C@H](O)C34C1C(C[C@@H]32)[C@@]1(O)CC[C@H]2C[C@@H]4[C@@H]1[C@H]2O` gave a TGI of more than 100 µM.
In the case of `CS(=O)(=O)C(C#N)c1nc2ccccc2nc1Cl` (configuration not stated), the TGI was more than 100 µM.
Molecule `CC1(c2cccc(C3CC4(CCC3=O)OCCCCO4)c2)OCCO1` (configuration not stated) displayed a TGI of more than 100 µM.

For the next test, the system named is RXF-631 renal. The experiment in a line: NCI anticancer screen, dose series, 48 h.
For the molecule `CN(C)/C=C/C(=CC=[N+](C)C)/C=C/N(C)C`, the TGI was more than 100 µM.

Another test deals with DMS 273 small cell lung. The experiment in a line: NCI anticancer screen, dose series, 48 h.
The molecule `CC1(C)OCN(c2ccc(N3CCOCC3)cc2)Cn2c1nc1ccccc12` returned a TGI of more than 100 µM.
Same read-out and setting: next, `Cc1n(CC(C)C)c2c([n+]1C)C(=O)c1ccccc1C2=O`: 0.786 µM.
In the case of `CN(C)/C=C/C(=CC=[N+](C)C)/C=C/N(C)C`, the TGI was more than 100 µM.
As to `O=S(Cc1ccccc1)c1nc2ccccc2nc1-c1cccs1` (configuration not stated), the TGI came to 22.7 µM.
In turn, `Cc1ccc2c(ccc(/C=C/c3ccc(O)c4ncccc34)[n+]2C)c1` gave a TGI of 17.2 µM.
`CCN1C[C@]2(C)CC[C@H](O)C34C1C(C[C@@H]32)[C@@]1(O)CC[C@H]2C[C@@H]4[C@@H]1[C@H]2O`: the TGI was more than 100 µM.
Still for that read-out and setting: under `CCC(CC)NC1=C(NC(C)=O)C(=O)c2ccccc2C1=O` stands more than 50 µM.
With `CS(=O)(=O)C(C#N)c1nc2ccccc2nc1Cl` (configuration not stated), the TGI is more than 100 µM.
`CC1(c2cccc(C3CC4(CCC3=O)OCCCCO4)c2)OCCO1` (configuration not stated) came in with a TGI of more than 100 µM.
